System: HCV genotype 1b replicon Huh7-lunet cells
Test: Resistance barrier analysis in HCV genotype 1b replicon cells (crystal violet staining)
Type: cell-based, Hepatitis C virus
Details: 2×EC50, 3 weeks in the presence of G418
Experimental: Stable HCV genotype 1b replicon Huh7-lunet cells were plated in 100 mm cell culture dishes (1.5×10^5 and 3×10^5 cells/dish for DMSO control and compound treated cells, respectively) and incubated for 24 hr (37° C., 5% CO2) prior to compound addition. Compounds (solubilized in DMSO) were prepared in complete media (0.5% DMSO final) and added to cells. Cells were maintained in the presence of compound (or DMSO) and G418 (500 μg/mL) for 3 weeks with media replacement two times per week. Cells were then fixed (4% paraformaldehyde, 30 min at room temperature) and stained (0.5% crystal violet/25% methanol, 20 min room temperature) to allow visualization of surviving cells. Plates were then washed with water to remove excess stain and left to air dry overnight prior to imaging (BioRad Gel Doc XR+Molecular Imager).
FIG. 1 illustrates comparison of a compound of the invention to daclatasvir in a test that provides a qualitative indication of the occurrence of resistance. […] The control plate, with DMSO alone (no compound 16 or daclatasvir), is almost completely opaque.

In the case of `COC(=O)N[C@H](C(=O)N1C[C@]2(CCCOC2)C[C@H]1c1ncc(-c2ccc(-c3ccc4c(ccc5nc([C@@H]6C[C@@H]7CCC[C@@H]7N6C(=O)[C@@H](NC(=O)OC)C(C)C)[nH]c54)c3)cc2)[nH]1)C(C)C` [Compound 16], the “surviving replicon cells (crystal violet staining)” value is reported as “almost entirely prevented replicon cell survival”.

Source: patent publication US10407445B2, “Hepatitis C virus inhibitors” (ENANTA PHARMACEUTICALS, INC., priority 2013, dated 2019)
